Source: the supplement of paper PMC10307832

Assays:
Assay in all cases: relative viability (nuclei count vs DMSO), 5 days (fraction); higher = more cells survive
[1] = tested on: SK-MES-1
How it was run: (§1)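 Five library-drug doses in √10 steps were combined with a fixed anchor-drug dose, or a single drug was given alone, by pin tool to lung cancer cell lines in 1536-well plates the day after seeding. Nuclei were stained and counted after 5 days. Relative viability is the nuclei count in treated wells over that in vehicle wells, taken as the median of duplicate plates.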

[2] = tested on: NCI-H2009
How it was run: as §1

[3] = tested on: UMC-11
How it was run: as §1

[4] = tested on: NCI-H1793
How it was run: as §1

[5] = tested on: NCI-H2228
How it was run: as §1

[6] = tested on: NCI-H1395
How it was run: as §1

[7] = tested on: NCI-H647
How it was run: as §1

[8] = tested on: COR-L23
How it was run: as §1

[9] = tested on: NCI-H1792
How it was run: as §1

[10] = tested on: NCI-H1755
How it was run: as §1

[11] = tested on: NCI-H2170
How it was run: as §1

[12] = tested on: HCC-15
How it was run: as §1

[13] = tested on: NCI-H838
How it was run: as §1

[14] = tested on: NCI-H1993
How it was run: as §1

[15] = tested on: HOP-62
How it was run: as §1

[16] = tested on: NCI-H1355
How it was run: as §1

[17] = tested on: NCI-H2347
How it was run: as §1

[18] = tested on: HARA
How it was run: as §1

[19] = tested on: COR-L 105
How it was run: as §1

[20] = tested on: NCI-H358
How it was run: as §1

[21] = tested on: NCI-H1734
How it was run: as §1

`CC(=O)O[C@@]12CO[C@@H]1C[C@H](O)[C@@]1(C)C(=O)[C@H](O)C3=C(C)[C@@H](OC(=O)[C@H](O)[C@@H](NC(=O)OC(C)(C)C)c4ccccc4)C[C@@](O)([C@@H](OC(=O)c4ccccc4)[C@H]21)C3(C)C` [Docetaxel] + Cc1nc(NC(=O)N2CCC[C@H]2C(N)=O)sc1-c1ccnc(C(C)(C)C(F)(F)F)c1 [Alpelisib] (partner 2 µM) gave a relative viability ([1]; first compound 0.0002 µM) of 0.932, a relative viability ([1]; first compound 0.000632 µM) of 0.892 and a relative viability ([1]; first compound 0.002 µM) of 0.484. For the same compound, the relative viability ([1]; first compound 0.006325 µM) was 0.224, the relative viability ([1]; first compound 0.02 µM) was 0.104 and the relative viability ([2]; first compound 0.0002 µM) was 1.13. For the same compound, the relative viability ([2]; first compound 0.000632 µM) was 1.16, the relative viability ([2]; first compound 0.002 µM) was 0.988 and the relative viability ([2]; first compound 0.006325 µM) was 0.765. For the same compound, the relative viability ([2]; first compound 0.02 µM) was 0.157, the relative viability ([3]; first compound 0.0002 µM) was 0.963 and the relative viability ([3]; first compound 0.000632 µM) was 0.841. The relative viability ([3]; first compound 0.002 µM) was 0.195, the relative viability ([3]; first compound 0.006325 µM) was 0.176 and the relative viability ([3]; first compound 0.02 µM) was 0.153. It also gave a relative viability ([4]; first compound 0.0002 µM) of 0.796, a relative viability ([4]; first compound 0.000632 µM) of 0.642 and a relative viability ([4]; first compound 0.002 µM) of 0.41. For the same compound, the relative viability ([4]; first compound 0.006325 µM) was 0.309, the relative viability ([4]; first compound 0.02 µM) was 0.222 and the relative viability ([5]; first compound 0.0002 µM) was 0.329. It also gave a relative viability ([5]; first compound 0.000632 µM) of 0.243, a relative viability ([5]; first compound 0.002 µM) of 0.232 and a relative viability ([5]; first compound 0.006325 µM) of 0.151. The relative viability ([5]; first compound 0.02 µM) was 0.118, the relative viability ([6]; first compound 0.0002 µM) was 1 and the relative viability ([6]; first compound 0.000632 µM) was 1.02. It also gave a relative viability ([6]; first compound 0.002 µM) of 1.35, a relative viability ([6]; first compound 0.006325 µM) of 0.638 and a relative viability ([6]; first compound 0.02 µM) of 0.307. It also gave a relative viability ([7]; first compound 0.0002 µM) of 0.903, a relative viability ([7]; first compound 0.000632 µM) of 0.347 and a relative viability ([7]; first compound 0.002 µM) of 0.189. It also gave a relative viability ([7]; first compound 0.006325 µM) of 0.0725, a relative viability ([7]; first compound 0.02 µM) of 0.0507 and a relative viability ([8]; first compound 0.0002 µM) of 0.65. It also gave a relative viability ([8]; first compound 0.000632 µM) of 0.718, a relative viability ([8]; first compound 0.002 µM) of 0.261 and a relative viability ([8]; first compound 0.006325 µM) of 0.0995. It also gave a relative viability ([8]; first compound 0.02 µM) of 0.0707, a relative viability ([9]; first compound 0.0002 µM) of 0.728 and a relative viability ([9]; first compound 0.000632 µM) of 0.655. It also gave a relative viability ([9]; first compound 0.002 µM) of 0.401, a relative viability ([9]; first compound 0.02 µM) of 0.0824 and a relative viability ([10]; first compound 0.0002 µM) of 0.871. The relative viability ([10]; first compound 0.000632 µM) was 0.792, the relative viability ([10]; first compound 0.002 µM) was 0.434 and the relative viability ([10]; first compound 0.006325 µM) was 0.326. The relative viability ([10]; first compound 0.02 µM) was 0.262, the relative viability ([11]; first compound 0.0002 µM) was 0.83 and the relative viability ([11]; first compound 0.000632 µM) was 0.632. It also gave a relative viability ([11]; first compound 0.002 µM) of 0.451, a relative viability ([11]; first compound 0.006325 µM) of 0.228 and a relative viability ([11]; first compound 0.02 µM) of 0.175. For the same compound, the relative viability ([12]; first compound 0.0002 µM) was 0.805, the relative viability ([12]; first compound 0.000632 µM) was 0.467 and the relative viability ([12]; first compound 0.002 µM) was 0.196. The relative viability ([12]; first compound 0.006325 µM) was 0.208, the relative viability ([12]; first compound 0.02 µM) was 0.118 and the relative viability ([13]; first compound 0.0002 µM) was 0.978. The relative viability ([13]; first compound 0.000632 µM) was 0.974, the relative viability ([13]; first compound 0.002 µM) was 0.286 and the relative viability ([13]; first compound 0.006325 µM) was 0.194. The relative viability ([13]; first compound 0.02 µM) was 0.157, the relative viability ([14]; first compound 0.0002 µM) was 0.727 and the relative viability ([14]; first compound 0.000632 µM) was 0.62. For the same compound, the relative viability ([14]; first compound 0.002 µM) was 0.741, the relative viability ([14]; first compound 0.006325 µM) was 0.525 and the relative viability ([14]; first compound 0.02 µM) was 0.454. The relative viability ([15]; first compound 0.0002 µM) was 0.899, the relative viability ([15]; first compound 0.000632 µM) was 0.526 and the relative viability ([16]; first compound 0.0002 µM) was 0.726. The relative viability ([16]; first compound 0.000632 µM) was 0.768, the relative viability ([16]; first compound 0.002 µM) was 0.435 and the relative viability ([16]; first compound 0.006325 µM) was 0.313. The relative viability ([16]; first compound 0.02 µM) was 0.189, the relative viability ([17]; first compound 0.0002 µM) was 1.01 and the relative viability ([17]; first compound 0.000632 µM) was 1.1. It also gave a relative viability ([17]; first compound 0.002 µM) of 0.666, a relative viability ([17]; first compound 0.006325 µM) of 0.525 and a relative viability ([17]; first compound 0.02 µM) of 0.438. For the same compound, the relative viability ([18]; first compound 0.0002 µM) was 0.778, the relative viability ([18]; first compound 0.000632 µM) was 0.525 and the relative viability ([18]; first compound 0.002 µM) was 0.282. For the same compound, the relative viability ([18]; first compound 0.006325 µM) was 0.114, the relative viability ([18]; first compound 0.02 µM) was 0.0727 and the relative viability ([19]; first compound 0.0002 µM) was 0.828. For the same compound, the relative viability ([19]; first compound 0.000632 µM) was 0.952, the relative viability ([19]; first compound 0.002 µM) was 0.475 and the relative viability ([19]; first compound 0.006325 µM) was 0.522. It also gave a relative viability ([19]; first compound 0.02 µM) of 0.306, a relative viability ([20]; first compound 0.0002 µM) of 0.786 and a relative viability ([20]; first compound 0.000632 µM) of 0.361. The relative viability ([20]; first compound 0.002 µM) was 0.267, the relative viability ([20]; first compound 0.02 µM) was 0.111 and the relative viability ([21]; first compound 0.0002 µM) was 0.614. The relative viability ([21]; first compound 0.000632 µM) was 0.67, the relative viability ([21]; first compound 0.002 µM) was 0.406 and the relative viability ([21]; first compound 0.006325 µM) was 0.355. For the same compound, the relative viability ([21]; first compound 0.02 µM) was 0.267.
